Broadly, the Ki is a measure of affinity in units of concentration, obtained from inhibition or displacement.

Where a name gives a salt, the structure may show the parent alone.

Results on five compounds are retold here after US20240252535A1, “CELLULAR COMPOSITION FOR TREATMENT OF DISEASES, DISORDERS OR CONDITIONS AND METHOD OF USE” (priority 2020, published 2024).

The subject of one test is Raji cells. The experiment in a line: CAR-T cell killing of luciferase-expressing Raji cells after pretreatment of CAR-T cells with serotonergic agonist. Format: cell-based, human. To be noted: for enhancement of killing of Raji cells: CD19 CAR-T cells preincubated one hour with 5×10^−5, 1×10^−4 or 2×10^−4 M agonist, washed, co-cultured 4 hours, versus unstimulated CAR-T cells; for level of killing of Raji cells: E:T ratio 3:1, agonist-stimulated CAR-T cells, 1% Triton-X100 control set as 100% killing. The procedure: Pergolide mesylate and 8-OH-DPAT (Sigma) were each dissolved in dimethyl sulfoxide (DMSO) to 2×10^−2 M. The solutions were subsequently diluted in Basal CAR-T medium (ProMab (Richmond, CA)) supplemented with 10% fetal bovine serum, 100U/mL sodium penicillin G (Rafa, Jerusalem) and 1000U/mL streptomycin (Rafa, Jerusalem), in a serial manner, to the indicated final concentrations. CD19 scFv-4-1BB-CD3ζ CAR-T cells (CAT. PM-CAR1002-1M) purchased from ProMab (Richmond, CA) were incubated with the diluted pergolide mesylate or 8-OH-DPAT for one hour, at 37° C. and 5% C02. The cells were pelleted by centrifugation and washed with regular cell growth medium to remove pergolide mesylate and 8-OH-DPAT prior to co-culture with target luciferase Raji cells.
Luciferase Raji cells stably expressing luciferase (Raji/NF-kB Reporter (Luc) stable cell line Cat. CL-1280) were purchased from FenicsBio (Halethorpe, MD) and grown in RPMI medium (Gibco Cat. 21875-034) supplemented with 10% fetal bovine serum, 100U/mL sodium penicillin G (Rafa, Jerusalem) and 1000 U/mL streptomycin (Rafa, Jerusalem), at 37° C. and 5% C02.
Target 2.5×10^3 Raji-luc cells were cultured, at 37° C. and 5% CO2, in each well of 96-well plates, either in medium, medium containing 1% Triton-X100 (Sigma), or with effector CAR-T cells, at an effector:target cell ratio of 0.5:1, 1:1, or 3:1 for 4 hours. Four replicate wells were prepared for each type of sample. Following the incubation period, the cells were incubated with 50 μL of reconstituted reagent (Bright-Glo Luciferase Assay System, E2620) for 2 min to detect the fluorescence intensity (FLUOstar OMEGA). The fluorescence intensity of the 1% Triton-X100 control was set as 100% killing.

For a further test, the target named is 5-HT2A (Homo sapiens, UniProt P28223). To be noted: cited from earlier work.
5-HT2A, sequence (P28223 whole entry): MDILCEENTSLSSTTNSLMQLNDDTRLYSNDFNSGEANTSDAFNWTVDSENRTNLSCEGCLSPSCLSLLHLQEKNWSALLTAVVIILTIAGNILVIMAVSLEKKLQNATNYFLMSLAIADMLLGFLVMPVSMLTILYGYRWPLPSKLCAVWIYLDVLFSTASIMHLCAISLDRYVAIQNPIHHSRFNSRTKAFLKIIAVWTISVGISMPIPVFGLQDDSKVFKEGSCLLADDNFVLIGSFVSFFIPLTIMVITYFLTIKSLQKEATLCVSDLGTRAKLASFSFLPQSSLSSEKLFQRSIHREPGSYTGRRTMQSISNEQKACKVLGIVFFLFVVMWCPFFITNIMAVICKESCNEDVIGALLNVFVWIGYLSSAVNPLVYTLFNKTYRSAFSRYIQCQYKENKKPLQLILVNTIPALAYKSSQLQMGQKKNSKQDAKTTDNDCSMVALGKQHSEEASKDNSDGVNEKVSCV
In a further test the target is T1, 5-HT1A receptors (Homo sapiens, UniProt P08908).
T1 sequence (P08908 1-422): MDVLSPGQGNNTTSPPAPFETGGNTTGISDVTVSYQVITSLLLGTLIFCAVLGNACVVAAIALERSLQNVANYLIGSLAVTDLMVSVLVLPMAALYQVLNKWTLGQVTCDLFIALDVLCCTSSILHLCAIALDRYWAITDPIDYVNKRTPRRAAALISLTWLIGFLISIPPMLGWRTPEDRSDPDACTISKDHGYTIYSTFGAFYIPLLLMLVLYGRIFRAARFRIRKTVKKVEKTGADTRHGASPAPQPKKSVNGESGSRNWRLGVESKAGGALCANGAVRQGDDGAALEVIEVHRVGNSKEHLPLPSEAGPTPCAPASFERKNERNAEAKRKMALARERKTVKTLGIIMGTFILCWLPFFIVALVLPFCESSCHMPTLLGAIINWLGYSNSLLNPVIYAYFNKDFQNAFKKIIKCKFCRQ
To be noted: cited from earlier work.

A further test has as its system ovarian cancer. To be noted: administration to tumor-bearing mice; cited from earlier work.

In the case of `CCCN(CCC)C1CCc2cccc(O)c2C1` (stereo not shown) [8-OH-DPAT, 8-hydroxy-2-(di-n-propylamino)tetralin], in the test with Raji cells, the “enhancement of killing of Raji cells” value was 2-3 fold and the “level of killing of Raji cells” value is recorded as “approximately 100%”.

Consider `CCCN1C[C@H](CSC)C[C@@H]2c3cccc4[nH]cc(c34)C[C@H]21` [pergolide mesylate], for which, in the test with Raji cells, the “enhancement of killing of Raji cells” value is 2-3 fold and the “level of killing of Raji cells” value is on record as “approximately 100%”.

In the case of `CN(C)CCc1c[nH]c2cccc(OP(=O)(O)O)c12` [psilocybin], the Ki on 5-HT2A was 6 nM; on 5-HT1A receptors, 190 nM.

In the case of `NCCc1c[nH]c2ccc(O)cc12` [serotonin, 5-hydroxytryptamine], in the test on ovarian cancer, the “time to disease progression” value is given as “decreased” and the tumor weight result is “increased”.

`CN[C@H]1CC[C@@H](c2ccc(Cl)c(Cl)c2)c2ccccc21` [sertraline]: in the test on ovarian cancer, the “time to disease progression” value was “decreased” and the tumor weight entry is listed as “increased”.
